Measurements published in patent US8039501B2, “Synephrine derivatives useful as anti-inflammatory agents” (Universiteit Gent, priority 2005, dated 2011).

What was measured:
[1] = tested on: NF-κB; assay: EMSA of NF-κB DNA binding in Namalwa B cells; format: cell-based, human; settings: 10, 0.1, 0.01, 0.001 μM, TNF 2000 IU/ml, FIG. 8B
[2] = tested on: bfl1 gene; assay: RNase protection analysis of bfl1 gene in MCF7 cells; format: cell-based, human; settings: 10 μM pre-treated 2 hours, TNF, FIG. 9
Experimental: In a first specific gene expression experiment, RNAse protection analysis on the bfl1 gene, coding for BCL2-related protein A1 that has anti-apoptotic activity. FIG. 9 illustrates the results of the RNAse protection analysis. Cells were pre-treated with CpdA (10 μM) and DEX (1 μM) for 2 hours before TNF induction or non-induction for a total period of 8 hours. Total RNA was recovered (see hereunder for the total RNA extraction protocol) and an RNA protection Assay (hereinafter referred to as RPA) was performed. Transcripts were quantified by autoradiography followed by densiometry.
For the total RNA extraction, 10^5 cell were homogenized in 1 ml of TRIzol Reagent (GIBCO BRL), incubated 5 minutes at room temperature; then added 200 μl chloroform, vortexed 15 seconds. Mix was incubated on ice for 5 minutes. […]
RNase Protection Assay (Pharmingen) was used for the detection and quantitation of A1/bfl mRNA species. […] The pelleted RNA was re-suspended in 6 μl of gel loading buffer, incubated at 95° C. for 5 minutes, quickly quenched on ice and analyzed by electrophoresis on 6% polyacrylamide/8M urea gels. Visualization and quantitation of radioactive bands was carried out by a Phosphorlmager and scanned using a bioimaging analyzer (Personal Molecular Imager® FX Bio-Rad). Densitometry analysis of autoradiograms was performed using Quantity One (Bio-Rad). […]

Question: What does the source list for CNCC(Cl)c1ccc(OC(C)=O)cc1.Cl (centres unmarked) [CpdA, 2-(4-acetoxyphenyl)-2-chloro-N-methyl-ethylammonium chloride]?
Answer: NF-κB binding to kB DNA sequence (EMSA) [1]: inhibits NF-κB binding to kB DNA sequence; Transcription of bfl1 gene (RNase protection) [2]: inhibits transcription of the prosurvival gene A
